Legend:
Rat islets [1] = assay: Islet recovery after streptozotocin exposure; format: cell-based, Sprague-Dawley rats
Description: (§1) Pancreata from Sprague-Dawley rats were collagenase digested and islets collected with a braking pipette as previously described (Sandler S et al., Endocrinology, 1987;121:1424-31). Islets were precultured free floating in RPMI 1640 medium with 10% (v/v) fetal calf serum (FCS) and 11 mM glucose for 3 days in 5% CO2 at 37° C. before experiments. Medium was changed two times during preculture. Islets were then transferred to sterile Petri dishes in KRBH (Krebs-Ringer bicarbonate with HEPES) medium with 2 mg/mL bovine serum albumin (BSA) and 5.6 mM glucose.
(§2) Stock solutions of test compounds dissolved in dimethyl sulphoxide were prepared and added to the Petri dishes. Islets were incubated in 5% CO2 at 37° C. for 30 minutes with or without test compounds and STZ in 0.9% NaCl was then added to a final concentration of 0.5 mM. Dry powder of alloxan was diluted to a stock of 50 mM just before the addition to the Petri dishes to a final concentration of 0.5 mM. The incubation continued for another 30 minutes and was terminated by the addition of 1 mL of cold KRBH. […]
About 100 islets per condition were carefully transferred to a glass tube and spun down at 800 rpm for 1 minute. […] For estimation of islet recovery, 30 islets from each condition were transferred to Petri dishes as described above and the remaining islets counted after 24 hours.

Rat islets [2] = assay: Insulin secretion and islet insulin content after streptozotocin exposure; format: cell-based, Sprague-Dawley rats; conditions: 24 hours; for insulin content compared to islets incubated with STZ alone / insulin secretion compared to islets incubated with STZ alone: pre-incubated with KATP channel opener, then 0.5 mM STZ
Description: as §1
(§3) Stock solutions of test compounds dissolved in dimethyl sulphoxide were prepared and added to the Petri dishes. Islets were incubated in 5% CO2 at 37° C. for 30 minutes with or without test compounds and STZ in 0.9% NaCl was then added to a final concentration of 0.5 mM. Dry powder of alloxan was diluted to a stock of 50 mM just before the addition to the Petri dishes to a final concentration of 0.5 mM. The incubation continued for another 30 minutes and was terminated by the addition of 1 mL of cold KRBH. The islets were then washed twice in KRBH and studied for morphology and insulin secretion, or cultured for 2 or 24 hours in RPMI with 10% FCS and 11 mM glucose prior to morphological and biochemical examinations.
(§4) Triplicates of five islets were transferred to 200 μl of KRBH with 2 mg/mL BSA and 16.7 mM glucose and incubated for 60 minutes in 5% CO2 at 37° C. Islets from each condition were then pooled and sonicated in 200 μl of redestilled water. A 50 μl aliquot of the homogenate was mixed with 125 μl acid ethanol (0.18 M HCl in 95% ethanol) and insulin extracted overnight. Insulin concentration in the sonicate and the culture medium was determined with radioimmunoassay.

Rat islets [3] = assay: Proinsulin and total protein biosynthesis after streptozotocin exposure; format: cell-based, Sprague-Dawley rats
Description: as §1, §3
For each condition duplicate samples of 20 islets were transferred to multiwell plates containing 100 μl KRBH with L-[4.5-^3H]leucine (50 μCi/ml), 2 mg/mL BSA and 16.7 mM glucose and incubated for 120 minutes in 5% C02 at 37° C. Islets were then washed in Hanks' solution supplemented with 10 mM nonradioactive leucine and subsequently sonicated in 200 μl of redestilled water. A 50 μl fraction of the aqueous homogenate was incubated for 90 minutes with insulin antibodies coupled to Sepharose beads to separate proinsulin from other labelled proteins (15). Total protein biosynthesis was obtained by precipitating the labelled proteins with trichloroacetic acid (TCA). The antibody bound and TCA precipitable radioactivity were determined in a liquid scintillation counter.

Rat islets [4] = assay: Glucose oxidation after streptozotocin exposure; format: cell-based, Sprague-Dawley rats
Description: as §1, §2
Groups of 10 islets were transferred to glass vials with 100 μl KRBH supplemented with D-[U^14C]glucose and nonradioactive glucose to a final concentration of 16.7 mM glucose. […] Scintillation fluid was then added to each flask and the radioactivity counted in a liquid scintillation counter.

Rat islets [5] = assay: Insulin release after alloxan exposure; format: cell-based, Sprague-Dawley rats; conditions: for counteraction of alloxan-induced reduction of insulin release: 0.3 mM opener, simultaneous incubation with 0.5 mM alloxan
Description: as §1, §3, §4

Rat islets [6] = assay: Glucose oxidation after alloxan exposure; format: cell-based, Sprague-Dawley rats; conditions: for glucose oxidation rate, of control: islets treated with 0.5 mM alloxan in the presence of opener, 24 hours
Description: as §1, §3
Groups of 10 islets were transferred to glass vials with 100 μl KRBH supplemented with D-[U^14C]glucose and nonradioactive glucose to a final concentration of 16.7 mM glucose. Triplicate samples were used. The vials were suspended in scintillation flasks, gassed with 5% CO2 and sealed airtight. The flasks were then shaken for 90 minutes at 37° C. Metabolism was stopped by injection of 100 μl of 0.05 mM antimycin A into the center vial. Immediately thereafter 250 μl hyamine hydroxide was injected into the outer flask. CO2 was released from the incubation medium by injecting 100 μl of 0.4 M Na2HPO4 solution (pH 6.0) into the center vial. […] Scintillation fluid was then added to each flask and the radioactivity counted in a liquid scintillation counter.

ischemic heart = conditions: Garlid KD et al., Circulation Res 1997; cited from earlier work
[7] = remaining islets after STZ 0.5 mM
[8] = recovered STZ islets at 24 hours
[9] = 0.3 mM test compound + 0.5 mM STZ

For `CN(N=O)C(=O)N[C@H]1C(O)O[C@H](CO)[C@@H](O)[C@@H]1O` (mixture of isomers) [STZ, streptozotocin], the islet loss (Rat islets [1]; STZ 0.5 mM for 30 minutes, then 24 hours culture) was 40%, the “insulin content, of control” value (Rat islets [2]; [7]) was 50% and the “insulin secretion, of control” value (Rat islets [2]; [7]) was 60%. The “proinsulin biosynthesis, of control” value (Rat islets [3]; [8]) was 35%, the “total protein biosynthesis, of control” value (Rat islets [3]; [8]) was 51% and the “proinsulin/total protein biosynthesis ratio” value (Rat islets [3]; recovered STZ islets at 24 hours, 23% in control islets) was 15%. For the same compound, the “insulin biosynthesis, of control” value (Rat islets [3]; remaining islets after STZ 0.5 mM, 24 hours) was 35% and the “rate of glucose oxidation, of control” value (Rat islets [4]; islets after STZ 0.5 mM, 24 hours) was 16%.

For `CC(C)NC1=NS(=O)(=O)c2sc(Cl)cc2N1` [6-Chloro-3-isopropylamino-4H-thieno[3,2-e]-1,2,4-thiadiazine 1,1-dioxide], the islet loss (Rat islets [1]; 0.3 mM test compound preincubated 30 minutes + 0.5 mM STZ, 24 hours culture) was “no islet loss”, the “insulin content compared to islets incubated with STZ alone” value (Rat islets [2]) was “higher” and the “insulin secretion compared to islets incubated with STZ alone” value (Rat islets [2]) was “higher”. For the same compound, the “insulin biosynthesis compared to islets incubated with STZ alone” value (Rat islets [3]; [9]) was “higher”, the “glucose oxidation rate compared to islets incubated with STZ alone” value (Rat islets [4]; [9]) was “higher” and the “counteraction of alloxan-induced reduction of insulin release” value (Rat islets [5]) was “fully counteracted”. The “glucose oxidation rate, of control” value (Rat islets [6]) was “did not differ from control”.

In the case of `O=C1NC(=O)C(=O)C(=O)N1` [alloxan], the “reduction of insulin release” value (Rat islets [5]; 0.5 mM alloxan) was 31% and the “decrease of glucose oxidation rate” value (Rat islets [6]; 0.5 mM alloxan, after 24 hours) was 51%.

For `CC1(C)Oc2ccc(C#N)cc2C(N2CCCC2=O)C1O` (stereo not drawn) [cromakalim], the “effect in ischemic heart” value (ischemic heart) is given as “beneficial, cardioprotective effect”.

With `CC1=NS(=O)(=O)c2cc(Cl)ccc2N1` [diazoxide] the “insulin content compared to islets incubated with STZ alone” value (Rat islets [2]) was “higher”, the “insulin secretion compared to islets incubated with STZ alone” value (Rat islets [2]) was “higher” and the “counteraction of alloxan-induced reduction of insulin release” value (Rat islets [5]) was “fully counteracted”. The “glucose oxidation rate, of control” value (Rat islets [6]) was 73% and the “effect in ischemic heart” value (ischemic heart) was “beneficial, cardioprotective effect”.

For `CC(N/C(=N\C#N)Nc1ccncc1)C(C)(C)C` (stereo not drawn) [pinacidil], the “effect in ischemic heart” value (ischemic heart) is given as “beneficial, cardioprotective effect”.

— patent US20020032193A1, “Use of potassium channel openers for the treatment of insulitis” (priority 2000, published 2002)
